Data as given in EP3848017A1, “ORAL CARE COMPOSITION CONTAINING INDOLE COMPONENTS FOR TREATING CARIES” (3M Innovative Properties Company, priority 2020, dated 2021).

Test system: in vitro human saliva microcosm biofilm
Experiment: Determination of Lactic Acid Release (LAR) after Permanent Exposure Procedure (LDH-NAD-PMS-MTT enzyme assay)
Format: cell-based
Conditions: Indole 0.07 wt.% in MCM-1% sucrose, about 26 hours biofilm growth, 37 °C, vs untreated control TC0, negative number = release of lactic acid reduced
Procedure: To determine the metabolic activity of the biofilm sample, the accumulation of lactic acid in the supernatant (1.0 ml PBS-solution with 5% sucrose per each biofilm sample disc) was measured by using the Lactic acid dehydrogenase (LDH)- Nicotinamide-adenine-dinucleotide (NAD)-Phenazine Methosulphate (PMS) - Thiazolyl blue tetrazolium bromide (MTT) - enzyme assay. To ensure that only freshly produced lactic acid is determined, the biofilm samples were washed four times with 1.0 ml PBS solution for 30 sec each. After 30 min the accumulated amount of lactic acid in the supernatant was measured by analyzing 50 µl of the supernatant. The lactic acid was quantified by the lactic acid specific enzyme assay described above. Known correlation between measured enzyme activity and amount of lactic acid was used to translate measured enzyme activity into the amount of lactic acid present in sample of the supernatant. In accordance to the validation of the in vitro human saliva microcosm biofilm model, a compound should lower the lactic acid release in permanent application of at least 40 or at least 50 % in comparison to the untreated biofilm control. […] Bovine sample disks of about 10 x 10 mm (+/- 2mm) were incubated in a 24 well plate containing 1.8 ml medium in an incubator at 37°C and 60 rpm circular movement. The treatment composition described below were added by pipetting and removed by a suction pump. • Day 1: Four-hours inoculation of bovine sample disks with saliva-mcm media (MCM = mucine containing medium plus 1 % sucrose) at 37 °C (without active substance). • Fresh medium (MCM-1% sucrose) containing the respective amounts of indole component as given in Table 2. This Treatment Composition was used for another 3-hour incubation. • Fresh medium (MCM-1% sucrose and Treatment Composition) for storage for about 14h at 37 °C. • Day 2: Fresh medium (MCM-1% sucrose and Treatment Composition) for 2-hour incubation. • Fresh medium (MCM-1% sucrose and Treatment Composition) for another 2-hour incubation. […]

Structure (SMILES)	inhibition at 0.07 % [%]
COc1ccc2[nH]cc(CC(=O)O)c2c1 [TC2 - IA2, 5-Methoxy-3-Indoleacetic acid]	87.8

Same assay, conditions: Indole 0.073 wt.% in MCM-1% sucrose, about 26 hours biofilm growth, 37 °C, vs untreated control TC0, negative number = release of lactic acid reduced

Structure (SMILES)	inhibition at 0.073 % [%]
O=C(O)CCc1c[nH]c2ccccc12 [TC1 - IA1, Indole-3-propionic acid]	95.3

Same assay, conditions: Indole 0.1 wt.% in MCM-1% sucrose, about 26 hours biofilm growth, 37 °C, vs untreated control TC0, negative number = release of lactic acid reduced

Structure (SMILES)	inhibition at 0.1 % [%]
O=C(O)Cc1c[nH]c2ccccc12 [TC3 - IA3, Indole acetic acid]	78

Test system: lactic acid producing bacteria in an oral biofilm
Experiment: not given
Conditions: qualitative statement; amino acids, as described in EP 18183601.6; cited from earlier work

Structure (SMILES)	reducing the lactic-acid release of bacteria in a biofilm
N=C(N)NCCC[C@H](N)C(=O)O [arginine]	not effective
N[C@@H](CC(=O)O)C(=O)O [aspartic acid]	not effective
NC(=O)CC[C@H](N)C(=O)O [glutamine]	not effective
NCC(=O)O [glycine]	useful
N[C@@H](Cc1c[nH]cn1)C(=O)O [histidine]	not effective
CC[C@H](C)[C@H](N)C(=O)O [isoleucine]	useful
CC(C)C[C@H](N)C(=O)O [leucine]	useful
NCCCC[C@H](N)C(=O)O [lysine]	useful
CSCC[C@H](N)C(=O)O [methionine]	useful
N[C@@H](Cc1ccccc1)C(=O)O [phenylalanine]	useful
O=C(O)[C@@H]1CCCN1 [proline]	not effective
N[C@@H](CO)C(=O)O [serine]	useful
C[C@@H](O)[C@H](N)C(=O)O [threonine]	useful
N[C@@H](Cc1c[nH]c2ccccc12)C(=O)O [tryptophan]	useful
N[C@@H](Cc1ccc(O)cc1)C(=O)O [tyrosine]	not effective
CC(C)[C@H](N)C(=O)O [valine]	useful
